Test results as given in US20100041744A1, “OILY PACLITAXEL COMPOSITION AND FORMULATION FOR CHEMOEM[…] PREPARATION METHOD THEREOF” (priority 2001, published 2010).
Converted amounts (≈) assume the structure as drawn.

What was measured:
physchem = settings: oil or lipid
Procedure: (§1) One milliliter of Lipiodol (Lipiodol Ultra-fluid, Laboratoire Guerbet, France, Iodine content 38% by weight) was used as an oily contrast medium. Lipiodol and 2, 4, 6, 8, 10 or 11 mg of paclitaxel (Samyang Genex, Korea) were added in test tubes (micro test tubes with safety lock, polyethylene, 1.5 ml, Eppendorf AG, Germany) and solubilized by stirring at room temperature. To speed up the solubilization process, it is acceptable to raise the temperature to 35˜45° C. or to sonicate in a bath type sonicator.
(§2) One milliliter of Lipiodol (Lipiodol Ultra-fluid, Laboratoire Guerbet, France, Iodine content 38% by weight) and 10 mg of paclitaxel (Samyang Genex, Korea) were added in test tubes and solubilized by stirring at room temperature. To speed up the solubilization process, the temperature of the mixture was raised to 40° C.
(§3) A mixture of 1 ml of Lipiodol (Lipiodol Ultra-fluid, Laboratoire Guerbet, France, Iodine content 38% by weight) and 0.01 ml of tricaprylin (Sigma Chemical Co.) and 12 mg of paclitaxel (Samyang Genex, Korea) were added in a test tube and solubilized by stirring at room temperature. To speed up the solubilization process, the composition was sonicated in a bath type sonicator.

[1] = Solubilization / solubility of paclitaxel in oily contrast medium
Procedure: as §1, §2, §3

SMILES: CC(=O)O[C@H]1C(=O)[C@@]2(C)[C@H]([C@H](OC(=O)c3ccccc3)[C@]3(O)C[C@H](OC(=O)[C@H](O)[C@@H](NC(=O)c4ccccc4)c4ccccc4)C(C)=C1C3(C)C)[C@]1(OC(C)=O)CO[C@@H]1C[C@@H]2O [paclitaxel]
- solubility (physchem; Lipiodol (oily contrast medium), 26 °C, thermodynamic from solid): ~10000 µg/mL (≈ 11.7 mM)
- solubility (physchem): ≤ 13000 µg/mL
- solubility of paclitaxel in mixed oil system of lipiodol/tricaprylin compared with lipiodol alone [1]: higher
